Reference: patent US5252563A, “5,6,7,8-tetrahydro-imidazo[1,2-a]pyrimidine compounds for treatment of neurotoxic injury” (G. D. Searle & Company, priority 1991, dated 1993)
Counter-ions that a name gives are not always drawn.

Experiments:
[1] = molecular target: [^3 H]MK-801 binding, rat SPM (synaptic plasma membranes); experiment: [^3 H]MK-801 Binding assay (modulation of [^3 H]MK-801 binding); settings: 5.0 nM [^3 H]MK-801, L-glutamate 10.0 nM; Triton X-100 treated rat SPM; pH 7.4; 25° C., 30 min
Experimental: Modulation of [^3 H]MK-801 binding was performed using Triton X-100 (0.04% v/v) treated rat SPM that had been extensively washed. Assay incubations were at 25° C. for 30 min. and contained 5.0 nM [^3 H]MK-801, L-glutamate (10.0 nM), and various concentrations of the tested compounds in 50 mM Tris/acetate, pH 7.4. The assay was stopped by rapid filtration, using Brandel MB-48 Harvester, through Whatman GF/B filters treated with 0.05% polyethylenimine and the samples washed four times with 2.0 mL cold buffer. The radioactivity associated with the filter was determined by liquid scintillation spectrometry. Nonspecific binding was defined using 60 μM MK-801. IC50 were determined using a logit-log transformation of the binding data.

[2] = molecular target: Kainate (KA) receptor; experiment: [^3 H]kainate (KA) receptor subclass binding assay, synaptic plasma membranes; settings: 0.5 nM [^3 H]kainate; SPM; pH 7.4; 0-4° C., 60 min
Experimental: (§1) Synaptic plasma membranes (SPM) were prepared as previously described [Monahan, J.B. and Michel, J., "Identification and Characterization of an N-methyl-D-aspartate-specific L[^3 H]glutamate Recognition Site in Synaptic Plasma Membranes, J. Neurochem., 48, […] (1987)]. The SPM were stored at a concentration of 10-15 mg/ml in 0.32M sucrose, 0.5 mM EDTA, 1 mM MgSO4, 5 mM Tris/SO4, pH 7.4, under liquid nitrogen. The identity and purity of the subcellular fractions were confirmed by both electron microscopy and marker enzymes. Protein concentrations were determined by using a modification of the method of Lowry [Ohnishi, S.T. and Barr, J.K., "A Simplified Method of Quantitating Proteins Using the Biuret and Phenol Reagents", anal. Biochem., 86, 193-197 (1978)]. The SPM were treated identically for the [^3 H]AMPA (QUIS), [3H]kainate and sodium-dependent L-[^3 H]-glumatate binding assays. […] Beckman MP scintillation cocktail containing 7 mL/1 acetic acid was then added and the samples counted on a Beckman LS 5800 or 3801 liquid scintillation counter with automatic corrections for quenching and counting efficiency. […] Radioligand binding to the synaptic plasma membranes was analyzed using Scatchard and Hill transformations and the Ki values of the compounds determined using logit-log transformations. […]

[3] = molecular target: NMDA receptor (N-methyl-D-aspartate-specific L-[^3 H]glutamate recognition site in synaptic plasma membranes); experiment: NMDA-Selective Glutamate Binding Assay ([^3 H]GLU)
Experimental: as §1

Ki [1] [nM]	KA Ki [2] [nM]	Ki ([3]; NMDA-specific L-[^3 H]glutamate 12.5 nM, Triton X-100 treated SPM, pH 7.4, 0-4° C., 10 min) [nM]	[^3 H]GLU % inhibition ([3]; @ 10 μM) [%]	Structure (SMILES)
280	> 10000	700		O=C(O)c1cn2c(n1)NCCC2CP(=O)(O)O (stereo not shown) [Example 1, 5-Phosphonomethyl-5,6,7,8-tetrahydro-imidazo [1,2-a]pyrimidine-2-carboxylic acid, ammonium salt]
			42	O=C(O)c1cn2c(n1)NC(CP(=O)(O)O)CC2 (stereo not shown) [Example 2, 7-phosphonomethyl-5,6,7,8-tetrahydro-imidazo[1,2-a]pyrimidine-2-carboxylicacid]
